From PubChem BioAssay (NCI)
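Dose response: 5 concentrations. Exposure: 48 h. Format: 96-well plates. Endpoint: linear interpolation; highest concentration if not reached. The concentration for full growth arrest is given as TGI.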 Where a SMILES comes first, the peptide text is derived from it. [ ]: non-standard residue; d: D form. The star is where a group is joined. ξ: configuration not given here. ξD = NC(CC(=O)O)C(=O)O; Boc = CC(C)(C)OC(=O)*; Aib = CC(C)(N)C(=O)O; OBn = c1ccc(CO*)cc1

Legend:
Experiment in all cases: inhibition of tumour cell growth, NCI panel, 48 h
NCI-H460 lung = test system: NCI-H460 lung
SNB-75 CNS = test system: SNB-75 CNS
SK-MEL-5 melanoma = test system: SK-MEL-5 melanoma
SK-OV-3 ovarian = test system: SK-OV-3 ovarian
A549 NSCLC = test system: A549 NSCLC
EKVX NSCLC = test system: EKVX NSCLC
UO-31 renal = test system: UO-31 renal
UACC-257 melanoma = test system: UACC-257 melanoma
SK-MEL-28 melanoma = test system: SK-MEL-28 melanoma
ACHN renal = test system: ACHN renal
786-0 renal = test system: 786-0 renal
K-562 leukemia = test system: K-562 leukemia
A498 renal = test system: A498 renal
NCI-H522 lung = test system: NCI-H522 lung
SW-620 colon = test system: SW-620 colon
SR leukemia = test system: SR leukemia

Row | Compound | TGI (NCI-H460 lung) | TGI (SNB-75 CNS) | TGI (SK-MEL-5 melanoma) | TGI (SK-OV-3 ovarian) | TGI (A549 NSCLC) | TGI (EKVX NSCLC) | TGI (UO-31 renal) | TGI (UACC-257 melanoma) | TGI (SK-MEL-28 melanoma) | TGI (ACHN renal) | TGI (786-0 renal) | TGI (K-562 leukemia) | TGI (A498 renal) | TGI (NCI-H522 lung) | TGI (SW-620 colon) | TGI (SR leukemia)
1 | CC1(O)CC2C(CC1SC1CC3C(CC1(C)O)C3(C)C)C2(C)C (stereo not drawn) | > 100 µM | 80.1 µM | 59.7 µM | > 100 µM | > 100 µM | 83.9 µM | > 100 µM | > 100 µM | > 100 µM | > 100 µM | > 100 µM | > 100 µM | – | – | – | –
2 | CN(C)CC1(C)CC/C(=C\c2ccc(Cl)cc2)C1=O (stereo not drawn) | 54.6 µM | > 100 µM | > 100 µM | – | > 100 µM | – | > 100 µM | > 100 µM | > 100 µM | > 100 µM | > 100 µM | > 100 µM | > 100 µM | 33.1 µM | 35.5 µM | –
3 | CC(=O)OCC12CC(CC1OC(C)=O)c1ccccc12 (stereo not drawn) | > 100 µM | – | > 100 µM | > 100 µM | > 100 µM | – | > 100 µM | > 100 µM | > 100 µM | > 100 µM | > 100 µM | > 100 µM | > 100 µM | – | > 100 µM | > 100 µM
4 | CCOC(=O)C1CCCc2sc(N)c(C#N)c21 (stereo not drawn) | > 100 µM | > 100 µM | > 100 µM | – | > 100 µM | > 100 µM | > 100 µM | > 100 µM | > 100 µM | > 100 µM | > 100 µM | > 100 µM | > 100 µM | – | > 100 µM | > 100 µM
5 | CSc1nc(-c2ccccc2)[nH]c(=O)n1 | – | – | > 100 µM | > 100 µM | > 100 µM | > 100 µM | > 100 µM | > 100 µM | > 100 µM | > 100 µM | > 100 µM | – | > 100 µM | > 100 µM | > 100 µM | –
6 | CC(=O)NC(CCCNC(=O)N(C)N=O)C(=O)NCc1ccccc1 (stereo not drawn) | > 100 µM | > 100 µM | > 100 µM | > 100 µM | > 100 µM | > 100 µM | > 100 µM | > 100 µM | > 100 µM | > 100 µM | > 100 µM | > 100 µM | > 100 µM | > 100 µM | > 100 µM | –
7 | Cc1ccc(C(=O)NC2CCCCC2)cc1N=NN(C)C | > 100 µM | – | > 100 µM | – | > 100 µM | > 100 µM | > 100 µM | > 100 µM | > 100 µM | > 100 µM | > 100 µM | – | – | > 100 µM | > 100 µM | –
8 | NCCCN(CCCCN(CCCN)Cc1ccccc1)Cc1ccccc1 | 32.2 µM | 37.6 µM | > 100 µM | > 100 µM | > 100 µM | 96.5 µM | > 100 µM | > 100 µM | > 100 µM | > 100 µM | 77.5 µM | > 100 µM | > 100 µM | 23.9 µM | > 100 µM | –
9 | Cc1nc(C(N)=S)sc1C(=O)CC(=O)C(=O)Nc1ccc(Br)cc1 | > 100 µM | > 100 µM | > 100 µM | > 100 µM | > 100 µM | > 100 µM | > 100 µM | > 100 µM | > 100 µM | > 100 µM | > 100 µM | > 100 µM | > 100 µM | > 100 µM | > 100 µM | –
10 | CC(=O)C1C(=O)C(=O)N(c2ccc([N+](=O)[O-])cc2[N+](=O)[O-])C1=O (stereo not drawn) | > 100 µM | > 100 µM | > 100 µM | > 100 µM | > 100 µM | > 100 µM | > 100 µM | > 100 µM | > 100 µM | > 100 µM | > 100 µM | – | – | > 100 µM | > 100 µM | –
11 | COc1cccc([C@@H]2C/C(=N\NC(=O)C(=O)N[C@@H](C)c3ccccc3)c3ccccc3N2)c1 | – | > 100 µM | > 100 µM | > 100 µM | > 100 µM | > 100 µM | > 100 µM | > 100 µM | > 100 µM | > 100 µM | > 100 µM | > 100 µM | > 100 µM | – | > 100 µM | –
12 | COc1ccc2c(=O)c3ccoc3[nH]c2c1 | > 100 µM | > 100 µM | > 100 µM | > 100 µM | – | > 100 µM | > 100 µM | > 100 µM | > 100 µM | > 100 µM | > 100 µM | > 100 µM | > 100 µM | – | > 100 µM | > 100 µM
13 | CC(C)(C)OC(=O)NC(CC(=O)OCc1ccccc1)C(=O)NC(C)(C)C(N)=O (stereo not drawn) (Boc-[ξD](OBn)-[Aib]-NH2) | > 100 µM | > 100 µM | > 100 µM | > 100 µM | > 100 µM | > 100 µM | > 100 µM | > 100 µM | > 100 µM | > 100 µM | > 100 µM | > 100 µM | > 100 µM | > 100 µM | > 100 µM | –
14 | CC(NNC(=O)c1ccncc1)c1ccccc1 (stereo not drawn) | – | > 100 µM | > 100 µM | > 100 µM | > 100 µM | > 100 µM | > 100 µM | > 100 µM | > 100 µM | > 100 µM | > 100 µM | > 100 µM | > 100 µM | – | > 100 µM | > 100 µM
15 | CCOC(=O)c1cc(=O)c2cccc3c2n1CCS3 | > 100 µM | > 100 µM | > 100 µM | > 100 µM | > 100 µM | > 100 µM | > 100 µM | > 100 µM | > 100 µM | > 100 µM | > 100 µM | – | > 100 µM | > 100 µM | > 100 µM | –
16 | COC(=O)/C=C1\CCC2[C@@H](C(=O)CC3[C@]2(C)CCC[C@@]3(C)C(=O)OC)C1C (stereo partly drawn) | 32.9 µM | 47.9 µM | 28 µM | 72.4 µM | 52 µM | 72.8 µM | 44.4 µM | 33.9 µM | 31.8 µM | 63.9 µM | > 100 µM | 41.3 µM | 99.7 µM | 36 µM | 64.1 µM | –
